Data on eight molecules can be found in paper doi:10.1101/2023.11.23.568446v1 (bioRxiv, 2023).

Bridge positions count the residues as written; N and C are the ends. Square brackets hold non-standard residues; d marks the D form. Peptide text beside a SMILES is read from it. * marks the point of attachment. X1 = CC[C@H](C)CCCCC(=O)*; Dab = NCC[C@H](N)C(=O)O

One test concerns A. baumannii ATCC 17978. As to the kind of experiment: Checkerboard assay. The test is classed as cell-based, Acinetobacter baumannii. Conditions: for MIC alone, Antibiotic: A. baumannii ATCC 17978.
The next test concerns A. baumannii isolates. As to the kind of experiment: Antibiotic resistance profile of isolates. The format is cell-based, Acinetobacter baumannii.
The next test concerns A. baumannii biofilms. Conditions: at 128µM (64×MIC); ref Kim et al., 2018; cited from earlier work.
The test system of a further test is DHA10 (CRAB). Kind of test: Checkerboard assay. The format is cell-based, Acinetobacter baumannii. Particulars: for MIC in combination, Antibiotic: in combination with AIG-R5.

Consider `C[C@@H](O)[C@H]1C(=O)N2C(C(=O)O)=C(SCCN=CN)C[C@H]12` [Imipenem], for which the “MIC alone, Antibiotic” value in the test with A. baumannii ATCC 17978 came out at 2 µg/mL. The “MIC in combination, Antibiotic” value in the test with A. baumannii ATCC 17978 (in combination with AIG-R1), in the test with A. baumannii ATCC 17978 (in combination with AIG-R4) and in the test with A. baumannii ATCC 17978 (in combination with AIG-R5) was 1 µg/mL throughout. In addition, the Antibiotic resistance profile result in the test with A. baumannii isolates (strain 17978) was “S”; with A. baumannii isolates (strain Ci 3), “R”; with A. baumannii isolates (strain Ci 6), “R”; in the test on A. baumannii isolates (strain Ci 7) it was “R”; in the test on A. baumannii isolates (strain DHA 8) it was “R”; with A. baumannii isolates (strain DHA 10), “R”. Besides, the Antibiotic resistance profile entry in the test with A. baumannii isolates (strain P-1119), with A. baumannii isolates (strain P-1131), in the test with A. baumannii isolates (strain P-1139), in the test with A. baumannii isolates (strain P-1169) and in the test on A. baumannii isolates (strain P-1182) was “R” each time.

magainin 2: in the test on A. baumannii biofilms, the degraded pre-formed biofilms is 33.3%.

Consider `CO[C@H]1/C=C/O[C@@]2(C)Oc3c(C)c(O)c4c(O)c(cc(O)c4c3C2=O)NC(=O)/C(C)=C\C=C\[C@H](C)[C@H](O)[C@@H](C)[C@@H](O)[C@@H](C)[C@H](OC(C)=O)[C@@H]1C` [Rifamycin], for which the “MIC alone, Antibiotic” value in the test with A. baumannii ATCC 17978 came out at 4 µg/mL. The “MIC in combination, Antibiotic” value in the test on A. baumannii ATCC 17978 (in combination with AIG-R1), in the test on A. baumannii ATCC 17978 (in combination with AIG-R4) and in the test on A. baumannii ATCC 17978 (in combination with AIG-R5) was 2 µg/mL throughout.

As to `NC[C@H]1O[C@H](O[C@H]2[C@H](O)[C@@H](O[C@H]3O[C@H](CO)[C@@H](O)[C@H](N)[C@H]3O)[C@H](N)C[C@@H]2N)[C@H](O)[C@@H](O)[C@@H]1O.O=S(=O)(O)O` [Kanamycin sulphate], the “MIC alone, Antibiotic” value in the test on A. baumannii ATCC 17978 came out at 4 µg/mL. Further, the “MIC in combination, Antibiotic” value was 2 µg/mL in the test on A. baumannii ATCC 17978 (in combination with AIG-R1), 2 µg/mL with A. baumannii ATCC 17978 (in combination with AIG-R4) and 1 µg/mL in the test with A. baumannii ATCC 17978 (in combination with AIG-R5).

Turning to `C[C@@H](O)[C@H]1C(=O)N2C(C(=O)O)=C(S[C@@H]3CN[C@H](C(=O)N(C)C)C3)[C@H](C)[C@H]12` [Meropenem], the Antibiotic resistance profile entry is listed as “S” in the test with A. baumannii isolates (strain 17978); “R” with A. baumannii isolates (strain Ci 3); “R” in the test with A. baumannii isolates (strain Ci 6); “R” in the test with A. baumannii isolates (strain Ci 7); “R” in the test with A. baumannii isolates (strain DHA 8); “R” in the test with A. baumannii isolates (strain DHA 10). The Antibiotic resistance profile result in the test on A. baumannii isolates (strain P-1119), in the test on A. baumannii isolates (strain P-1131), in the test with A. baumannii isolates (strain P-1139), in the test with A. baumannii isolates (strain P-1169) and in the test with A. baumannii isolates (strain P-1182) was “R” throughout.

Take `CC[C@H](C)CCCCC(=O)N[C@@H](CCN)C(=O)N[C@H](C(=O)N[C@@H](CCN)C(=O)N[C@H]1CCNC(=O)[C@H]([C@@H](C)O)NC(=O)[C@H](CCN)NC(=O)[C@H](CCN)NC(=O)[C@H](CC(C)C)NC(=O)[C@@H](CC(C)C)NC(=O)[C@H](CCN)NC1=O)[C@@H](C)O` [Colistin] (X1-[Dab]T[Dab][Dab][Dab][dL]L[Dab][Dab]T; lactam 4-C (inferred); N-terminus assumed): the “MIC alone, Antibiotic” value with A. baumannii ATCC 17978 is 1 µg/mL. The figures for the “MIC in combination, Antibiotic” value in the test with A. baumannii ATCC 17978 (in combination with AIG-R1), in the test with A. baumannii ATCC 17978 (in combination with AIG-R4) and with A. baumannii ATCC 17978 (in combination with AIG-R5) were 0.25 µg/mL, 0.25 µg/mL and 0.5 µg/mL, respectively. In addition, the Antibiotic resistance profile result is given as “S” in the test on A. baumannii isolates (strain 17978); “R” in the test with A. baumannii isolates (strain Ci 3); “R” in the test on A. baumannii isolates (strain Ci 6); “R” in the test with A. baumannii isolates (strain Ci 7); “R” in the test on A. baumannii isolates (strain DHA 8); “R” with A. baumannii isolates (strain DHA 10). The Antibiotic resistance profile result in the test with A. baumannii isolates (strain P-1119), with A. baumannii isolates (strain P-1131), in the test on A. baumannii isolates (strain P-1139), in the test with A. baumannii isolates (strain P-1169) and in the test with A. baumannii isolates (strain P-1182) was “R” throughout.

As for `NC[C@H]1O[C@H](O[C@H]2[C@H](O)[C@@H](O[C@H]3O[C@H](CO)[C@@H](O)[C@H](N)[C@H]3O)[C@H](N)C[C@@H]2N)[C@H](N)C[C@@H]1O` [Tobramycin], the “MIC alone, Antibiotic” value was 2 µg/mL in the test on A. baumannii ATCC 17978 and 512 µg/mL in the test with DHA10 (CRAB). Further, the “MIC in combination, Antibiotic” value with A. baumannii ATCC 17978 (in combination with AIG-R1) is 1 µg/mL; in the test on A. baumannii ATCC 17978 (in combination with AIG-R4), 1 µg/mL; in the test with A. baumannii ATCC 17978 (in combination with AIG-R5), 0.5 µg/mL; with DHA10 (CRAB), 128 µg/mL.

For the molecule `NCC[C@H](O)C(=O)N[C@@H]1C[C@H](N)[C@@H](O[C@H]2O[C@H](CN)[C@@H](O)[C@H](O)[C@H]2O)[C@H](O)[C@H]1O[C@H]1O[C@H](CO)[C@@H](O)[C@H](N)[C@H]1O` [Amikacin], the “MIC alone, Antibiotic” value in the test on A. baumannii ATCC 17978 was determined as 2 µg/mL. Further, the “MIC in combination, Antibiotic” value in the test on A. baumannii ATCC 17978 (in combination with AIG-R1) came to 0.5 µg/mL; with A. baumannii ATCC 17978 (in combination with AIG-R4), 1 µg/mL; in the test with A. baumannii ATCC 17978 (in combination with AIG-R5), 0.5 µg/mL; in the test with DHA10 (CRAB), 256 µg/mL.
